Experimental data taken from US12338262B2 (Forward Therapeutics, Inc., priority 2022, dated 2025).

Molecular target: TNF-α (Homo sapiens, UniProt P01375)
Test: TNF-α Induced HEK Blue Cellular Assay
Assay type: cell-based
Conditions: HEK Blue TNFα reporter cells, TNF-α 100 pg/ml, 24 hrs at 37° C., secreted alkaline phosphatase (QUANTI-Blue, 620 nm)
Description: TNF-α Induced HEK Bluet Cellular Assay
Test articles were diluted in DMSO and serially diluted into 384 well assay plate (Corning 3765), at final concentrations ranging from […] to 0.5 nM. HEK Blue™ TNFα reporter cells were added at a final density of 10,000 cell per well in assay media [DMEM (Gibco, cat #21063-029), 10% fetal bovine serum (ExcelBio, cat #FND500), 1% Penicillin-Streptomycin (Solarbio, cat #P1400-100]. TNF-α (R&D 210-TA-020/CF) was then added to the assay plate at a final concentration of 100 pg/ml. This plate was then incubated for 24 hrs at 37° C. and 5% CO2. Secreted alkaline phosphatase expression was then measured using QUANTI-Blue™ (Invivogen), according to manufacturer instructions and read on an Envision microplate reader at 620 nm.
Inhibition data for test compound over a range of concentration was plotted as percentage inhibition of the test compound (100%=maximum inhibition). IC50 values were determined after correcting for background [(sample read-mean of low control)/(mean of high control-mean of low control)] where by the low control is DMSO without stimulation and high control is DMSO with stimulation. The IC50 is defined as the concentration of test compound which produces 50% inhibition and was quantified using the 4 parameter logistic equation to fit the data.

Chain of TNF-α (P01375 77-233 limits assumed): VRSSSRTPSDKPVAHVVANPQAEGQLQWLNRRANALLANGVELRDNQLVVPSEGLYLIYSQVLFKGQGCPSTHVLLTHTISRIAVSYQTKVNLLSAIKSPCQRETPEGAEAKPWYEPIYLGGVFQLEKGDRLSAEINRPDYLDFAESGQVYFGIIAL

Question: `Cc1nc2cc(F)c(-c3ccc(P(C)(C)=O)nc3)nc2c(N[C@H](C)c2ccccn2)c1Cl` [Example 83, 3-chloro-6-[6-(dimethylphosphoryl)pyridin-3-yl]-7-fluoro-2-methyl-N-[(1R)-1-(pyridin-2-yl)ethyl]-1,5-naphthyridin-4-amine] was tested. Which IC50 did it give?
Answer: ≤ 1000 nM

Question: Which IC50 does the source give for `Cc1nc2cc(F)c(-c3ccc(P(C)(C)=O)nc3)nc2c(N[C@@H](CO)c2cc(C#N)ccc2F)c1Cl` (single isomer, unassigned) [Example 64] here?
Answer: 10000 to 30000 nM

Question: How did the IC50 turn out when `CC[C@H](Nc1c(Cl)c(C)nc2cc(F)c(-c3ccc(P(C)(C)=O)nc3)nc12)c1ccccc1F` [Example 23, 3-chloro-6-[6-(dimethylphosphoryl)pyridin-3-yl]-7-fluoro-N-[(1S)-1-(2-fluorophenyl)propyl]-2-methyl-1,5-naphthyridin-4-amine] was run?
Answer: ≤ 100 nM

Question: How did the IC50 turn out when `Cc1nc2cc(F)c(-c3ccc(P(C)(C)=O)nc3)nc2c(NC(c2cccc(F)c2F)C(C)(F)F)c1Cl` (stereo not drawn) [Example 142, 3-chloro-N-[1-(2,3-difluorophenyl)-2,2-difluoropropyl]-6-[6-(dimethylphosphoryl)pyridin-3-yl]-7-fluoro-2-methyl-1,5-naphthyridin-4-amine] was run?
Answer: 1000 to 10000 nM

Question: `Cc1nc2cc(F)c(-c3ccc(P(C)(C)=O)nc3)nc2c(N[C@@H](c2ccccc2)C2CC2)c1Cl` [Example 137, 3-chloro-N—[(R)-cyclopropyl(phenyl)methyl]-6-[6-(dimethylphosphoryl)pyridin-3-yl]-7-fluoro-2-methyl-1,5-naphthyridin-4-amine] was tested. Which IC50 did it give?
Answer: ≤ 1000 nM

Question: `Cc1nc2cc(F)c(-c3cnc(P(C)(C)=O)nc3)nc2c(N[C@H](C)c2cc(C#N)cc(F)c2F)c1Cl` [Example 131, 3-[(1R)-1-({3-chloro-6-[2-(dimethylphosphoryl)pyrimidin-5-yl]-7-fluoro-2-methyl-1,5-naphthyridin-4-yl}amino)ethyl]-4,5-difluorobenzonitrile] was tested. Which IC50 did it give?
Answer: ≤ 1000 nM

Question: With `C#Cc1ccc(F)c([C@@H](C)Nc2c(Cl)c(C)nc3cc(F)c(-c4ccc(P(C)(C)=O)nc4)nc23)c1` [Example 98, 3-chloro-6-[6-(dimethylphosphoryl)pyridin-3-yl]-N-[(1R)-1-(5-ethynyl-2-fluorophenyl)ethyl]-7-fluoro-2-methyl-1,5-naphthyridin-4-amine] as the molecule, how does the IC50 read?
Answer: ≤ 1000 nM

Question: With `Cc1nc2cc(F)c(-c3cnc(OCP(C)(C)=O)nc3)nc2c(N[C@H](C)c2cc(C#N)ccc2F)c1Cl` [Example 121, 3-[(1R)-1-[(3-chloro-6-{2-[(dimethylphosphoryl)methoxy]pyrimidin-5-yl}-7-fluoro-2-methyl-1,5-naphthyridin-4-yl)amino]ethyl]-4-fluorobenzonitrile] as the molecule, how does the IC50 read?
Answer: ≤ 100 nM

Question: Which IC50 does the source give for `Cc1nc2cc(F)c(-c3ccc(P(C)(C)=O)nc3)cc2c(N[C@H](C)c2cncnc2)c1Cl` (single isomer, unassigned) [Example 100] here?
Answer: 10000 to 30000 nM

Question: How did the IC50 turn out when `Cc1nc2cc(F)c(-c3ccc(P(C)(C)=O)nc3)cc2c(N[C@H](C)c2cccc(F)c2F)c1Cl` [Example 67, 3-chloro-N-[(1R)-1-(2,3-difluorophenyl)ethyl]-6-[6-(dimethylphosphoryl)pyridin-3-yl]-7-fluoro-2-methylquinolin-4-amine] was run?
Answer: ≤ 100 nM

Question: For `C[C@@H](Nc1c(Cl)cnc2cc(F)c(-c3ccc(P(C)(C)=O)nc3)nc12)c1cc(C#N)ccc1F` [Example 15, 3-[(1R)-1-({3-chloro-6-[6-(dimethylphosphoryl)pyridin-3-yl]-7-fluoro-1,5-naphthyridin-4-yl}amino)ethyl]-4-fluorobenzonitrile], which IC50 is on record?
Answer: ≤ 100 nM

Question: For `Cc1nc2cc(F)c(-c3ccc(P(C)(C)=O)nc3)nc2c(N[C@H](C)c2cc(C#N)ccc2F)c1Cl` [Example 2, 3-[(1R)-1-({3-chloro-6-[6-(dimethylphosphoryl)pyridin-3-yl]-7-fluoro-2-methyl-1,5-naphthyridin-4-yl}amino)ethyl]-4-fluorobenzonitrile], which IC50 is on record?
Answer: ≤ 100 nM
